In patent publication US11000491B2, “Amino-aryl-benzamide compounds and methods of use thereof” (HEPANOVA, INC., priority 2017, dated 2021):
Like-named read-outs stand apart in the source and are kept apart here.

Tests used:
Assay type in all cases: cell-based
SREBP-2 = SREBP-2 expression in cultured primary human hepatocytes; conditions: procedure of Example 6, read-out: SREBP-2 mRNA inhibition (EC50)
Description: (§1) FIG. 9. Effects of HPN-01 on the expression of SREBP-1 (master regulator of hepatic glucose metabolism and fatty acid synthesis) and SREBP-2 (master regulator of cholesterol homeostasis in cells) in cultured primary human hepatocytes.
(§2) Cultured primary human hepatocytes were treated with various concentrations of HPN-01, and the expression levels of SREBP-1 (master regulator of hepatic glucose metabolism and fatty acid synthesis) and SREBP-2 (master regulator of cholesterol homeostasis in cells) were subsequently determined.
(§3) The ability of each HPN-01 derivative obtained from the synthesis methods described above, to inhibit SREBP-1 and SREBP-2 mRNA expression in primary hepatocytes, was tested using the procedure outlined in Example 6. The results of this analysis are shown in Table 6 (third and fourth columns).

Huh7 cells = assay: LD content in Huh7 cells pre-treated with insulin, Oil-Red-O staining, absorbance OD 540 nm; conditions: procedure of Example 3, read-out: LD content inhibition (EC50)
Description: FIG. 6. […] Spectrophotometric absorbance of untreated or HPN-01-treated Huh7 cells pre-incubated with 1 mM insulin is shown. LD contents were stained using Oil Red O, and measured by determining spectrophotometer absorbance under OD 540 nm.
Huh7 cells were mock treated or pre-treated with 1 mM insulin, and subsequently treated with indicated amounted of HPN-01.
The ability of each HPN-01 derivative obtained from the synthesis methods described above, to inhibit LD formation in hepatocytes, was tested using the procedure outlined in Example 3. The results of this analysis are shown below in Table 6 (second column).

SREBP-1 = SREBP-1 expression in cultured primary human hepatocytes; conditions: procedure of Example 6, read-out: SREBP-1 mRNA inhibition (EC50)
Description: as §1, §2, §3

[1] = Homo sapiens, Huh-7, Huh7 cells

Row | Compound | EC50 (Huh7 cells; [1]) [µM] | EC50 (SREBP-2) [µM] | EC50 (Huh7 cells; Huh7 cells) [µM] | EC50 (SREBP-1) [µM] | EC50 (SREBP-2; Homo sapiens, Hepatocyte) [µM] | EC50 (SREBP-1; Homo sapiens, Hepatocyte) [µM] | EC50 (SREBP-2; Hepatocyte) [µM] | EC50 (SREBP-1; Hepatocyte) [µM]
1 | Cc1cccc(NC(=O)/C=C/c2cc(C(N)=O)c(N)c(-c3ccc(S(N)(=O)=O)cc3)c2)c1 [HPN-01127, (E)-2-amino-5-(3-oxo-3-(m-tolylamino)prop-1-en-1-yl)-4═-sulfamoyl-[1,1′-biphenyl]-3-carboxamide] |  | 3.37 | 0.33 | 1.17 |  |  |  | 
2 | CCOc1ccc(NC(=O)/C=C/c2cc(C(N)=O)c(N)c(-c3ccc(S(N)(=O)=O)cc3)c2)cc1 [HPN-01129, (E)-2-amino-5-(3-((4-ethoxyphenyl)amino)-3-oxoprop-1-en-1-yl)-4′-sulfamoyl-[1,1′-biphenyl]-3-carboxamide] | 0.29 |  |  |  | 3.1 | 1.69 |  | 
3 | NC(=O)c1cc(/C=C/C(=O)Nc2ccc(Cl)cc2)cc(-c2ccc(S(N)(=O)=O)cc2)c1N [HPN-01130, (E)-2-amino-5-(3-((4-chlorophenyl)amino)-3-oxoprop-1-en-1-yl)-4′-sulfamoyl-[1,1′-biphenyl]-3-carboxamide] | 0.06 |  |  |  | 1.8 | 0.97 |  | 
4 | NC(=O)c1cc(/C=C/C(=O)NCc2ccccc2)cc(-c2ccc(S(N)(=O)=O)cc2)c1N [HPN-01131, (E)-2-amino-5-(3-(benzylamino)-3-oxoprop-1-en-1-yl)-4′-sulfamoyl-[1,1′-biphenyl]-3-carboxamide] | 0.38 |  |  |  | 2.26 | 1.28 |  | 
5 | NC(=O)c1cc(C#Cc2ccccc2)cc(-c2ccc(S(N)(=O)=O)cc2)c1N [HPN-01202, 2-amino-5-(phenylethynyl)-4′-sulfamoylbiphenyl-3-carboxamide] | 0.29 |  |  |  | 0.9 | 0.64 |  | 
6 | COc1ccc(C#Cc2cc(C(N)=O)c(N)c(-c3ccc(S(N)(=O)=O)cc3)c2)cc1 [HPN-01204, 2-amino-5-((4-methoxyphenyl)ethynyl)-4′-sulfamoylbiphenyl-3-carboxamide] | 1.01 |  |  |  | 4.59 | 4.18 |  | 
7 | NC(=O)c1cc(C#Cc2ccc(Cl)cc2)cc(-c2ccc(S(N)(=O)=O)cc2)c1N [HPN-01205, 2-amino-5-((4-chlorophenyl)ethynyl)-4′-sulfamoyl-[1,1′-biphenyl]-3-carboxamide] | 0.52 |  |  |  | 2.09 | 1.75 |  | 
8 | NC(=O)c1cc(C#Cc2ccc(Br)cc2)cc(-c2ccc(S(N)(=O)=O)cc2)c1N [HPN-01207, 2-amino-5-((4-bromophenyl)ethynyl)-4′-sulfamoyl-[1,1′-biphenyl]-3-carboxamide] | 0.98 |  |  |  | 2.73 | 1.94 |  | 
9 | NC(=O)c1cc(C#Cc2cccc(Br)c2)cc(-c2ccc(S(N)(=O)=O)cc2)c1N [HPN-01208, 2-amino-5-((3-bromophenyl)ethynyl)-4′-sulfamoyl-[1,1′-biphenyl]-3-carboxamide] | 1.69 |  |  |  | 5.77 | 3.25 |  | 
10 | C[Si](C)(C)C#Cc1cc(C(N)=O)c(N)c(-c2ccc(S(N)(=O)=O)cc2)c1 [HPN-01209, 2-amino-4′-sulfamoyl-5-((trimethylsilyl)ethynyl)-[1,1′-biphenyl]-3-carboxamide] | 0.82 |  |  |  |  |  | 1.98 | 2.33
11 | COc1cccc(C(=O)OCC#Cc2cc(C(N)=O)c(N)c(-c3ccc(S(N)(=O)=O)cc3)c2)c1 [HPN-01216, 3-(6-amino-5-carbamoyl-4′-sulfamoyl-[1,1′-biphenyl]-3-yl)prop-2-yn-1-yl 3-methoxybenzoate] | 0.96 |  |  |  | 7.93 | 4.35 |  | 
12 | COc1ccccc1C(=O)OCC#Cc1cc(C(N)=O)c(N)c(-c2ccc(S(N)(=O)=O)cc2)c1 [HPN-01217, 3-(6-amino-5-carbamoyl-4′-sulfamoyl-[1,1′-biphenyl]-3-yl)prop-2-yn-1-yl 2-methoxybenzoate] | 0.18 |  |  |  | 2.07 | 1.03 |  | 
13 | COC(=O)c1ccc(-c2cc(C(N)=O)c(N)c(-c3ccc(S(N)(=O)=O)cc3)c2)cc1 [HPN-01301, methyl 4′-amino-5′-carbamoyl-4″-sulfamoyl-[1,1′:3′,1″-terphenyl]-4-carboxylate] | 1.19 |  |  |  | 5.35 | 3.44 |  | 
14 | CCOC(=O)c1ccc(-c2cc(C(N)=O)c(N)c(-c3ccc(S(N)(=O)=O)cc3)c2)cc1 [HPN-01302, ethyl 4′-amino-5′-carbamoyl-4″-sulfamoyl-[1,1′:3′,1″-terphenyl]-4-carboxylate] | 1.03 |  |  |  | 4.52 | 3.16 |  | 

Now from value to molecule, other results behind:

Row | EC50 (Huh7 cells; [1]) [µM] | Compound | EC50 (SREBP-2) [µM] | EC50 (Huh7 cells; Huh7 cells) [µM] | EC50 (SREBP-1) [µM] | EC50 (SREBP-2; Homo sapiens, Hepatocyte) [µM] | EC50 (SREBP-1; Homo sapiens, Hepatocyte) [µM] | EC50 (SREBP-2; Hepatocyte) [µM] | EC50 (SREBP-1; Hepatocyte) [µM]
15 | 1.2 | NC(=O)c1cc(C#CCO)cc(-c2ccc(S(N)(=O)=O)cc2)c1N [HPN-01201, 2-amino-5-(3-hydroxyprop-1-ynyl)-4′-sulfamoylbiphenyl-3-carboxamide] |  |  |  | 6.85 | 3.16 |  | 
16 | 0.53 | NC(=O)c1cc(C#CCOC(=O)c2ccccc2Cl)cc(-c2ccc(S(N)(=O)=O)cc2)c1N [HPN-01210, 3-(6-amino-5-carbamoyl-4′-sulfamoyl-[1,1′-biphenyl]-3-yl)prop-2-yn-1-yl 2-chlorobenzoate] |  |  |  | 2.97 | 1.92 |  | 
17 | 0.78 | NC(=O)c1cc(C#CCOC(=O)c2ccccc2Br)cc(-c2ccc(S(N)(=O)=O)cc2)c1N [HPN-01211, 3-(6-amino-5-carbamoyl-4′-sulfamoyl-[1,1′-biphenyl]-3-yl)prop-2-yn-1-yl 2-bromobenzoate] |  |  |  | 7.14 | 3.79 |  | 
18 | 0.75 | Cc1ccccc1C(=O)OCC#Cc1cc(C(N)=O)c(N)c(-c2ccc(S(N)(=O)=O)cc2)c1 [HPN-01212, 3-(6-amino-5-carbamoyl-4′-sulfamoyl-[1,1′-biphenyl]-3-yl)prop-2-yn-1-yl 2-methylbenzoate] |  |  |  | 1.85 | 2.27 |  | 
19 | 1.29 | NC(=O)c1cc(C#CCOC(=O)c2ccccc2F)cc(-c2ccc(S(N)(=O)=O)cc2)c1N [HPN-01213, 3-(6-amino-5-carbamoyl-4′-sulfamoyl-[1,1′-biphenyl]-3-yl)prop-2-yn-1-yl 2-fluorobenzoate] |  |  |  | 4.88 | 4.55 |  | 
20 | 0.52 | Cc1ccc(C(=O)OCC#Cc2cc(C(N)=O)c(N)c(-c3ccc(S(N)(=O)=O)cc3)c2)cc1 [HPN-01214, 3-(6-amino-5-carbamoyl-4′-sulfamoyl-[1,1′-biphenyl]-3-yl)prop-2-yn-1-yl 4-methylbenzoate] |  |  |  | 6.32 | 3.42 |  | 
21 | 0.61 | Cc1cccc(C(=O)OCC#Cc2cc(C(N)=O)c(N)c(-c3ccc(S(N)(=O)=O)cc3)c2)c1 [HPN-01215, 3-(6-amino-5-carbamoyl-4′-sulfamoyl-[1,1′-biphenyl]-3-yl)prop-2-yn-1-yl 3-methylbenzoate] |  |  |  | 6.78 | 3.72 |  | 
22 | 0.99 | COc1ccc(C(=O)OCC#Cc2cc(C(N)=O)c(N)c(-c3ccc(S(N)(=O)=O)cc3)c2)cc1 [HPN-01218, 3-(6-amino-5-carbamoyl-4′-sulfamoyl-[1,1′-biphenyl]-3-yl)prop-2-yn-1-yl 4-methoxybenzoate] |  |  |  | 6.51 | 4.54 |  | 
23 | 0.96 | NC(=O)c1cc(C#CCOC(=O)c2cccc(O)c2)cc(-c2ccc(S(N)(=O)=O)cc2)c1N [HPN-01219, 3-(6-amino-5-carbamoyl-4′-sulfamoyl-[1,1′-biphenyl]-3-yl)prop-2-yn-1-yl 3-hydroxybenzoate] |  |  |  | 6.91 | 4.71 |  | 
24 | 0.46 | NC(=O)c1cc(C#CCOC(=O)c2ccc(O)cc2)cc(-c2ccc(S(N)(=O)=O)cc2)c1N [HPN-01220, 3-(6-amino-5-carbamoyl-4′-sulfamoyl-[1,1′-biphenyl]-3-yl)prop-2-yn-1-yl 4-hydroxybenzoate] |  |  |  | 3.21 | 1.59 |  | 
25 | 0.77 | NC(=O)c1cc(C#CCOC(=O)c2ccccn2)cc(-c2ccc(S(N)(=O)=O)cc2)c1N [HPN-01221, 3-(6-amino-5-carbamoyl-4′-sulfamoyl-[1,1′-biphenyl]-3-yl)prop-2-yn-1-yl picolinate] |  |  |  | 3.47 | 1.67 |  | 
26 | 1.36 | NC(=O)c1cc(C#CCOC(=O)c2ccc[nH]2)cc(-c2ccc(S(N)(=O)=O)cc2)c1N [HPN-01222, 3-(6-amino-5-carbamoyl-4′-sulfamoyl-[1,1′-biphenyl]-3-yl)prop-2-yn-1-yl 1H-pyrrole-2-carboxylate] |  |  |  | 12.8 | 7.31 |  | 
27 | 1.03 | CC(=O)OCC#Cc1cc(C(N)=O)c(N)c(-c2ccc(S(N)(=O)=O)cc2)c1 [HPN-01223, 3-(6-amino-5-carbamoyl-4′-sulfamoyl-[1,1′-biphenyl]-3-yl)prop-2-yn-1-yl acetate] |  |  |  | 4.2 | 2.64 |  | 
28 | 0.58 | CCCC(=O)OCC#Cc1cc(C(N)=O)c(N)c(-c2ccc(S(N)(=O)=O)cc2)c1 [HPN-01224, 3-(6-amino-5-carbamoyl-4′-sulfamoyl-[1,1′-biphenyl]-3-yl)prop-2-yn-1-yl butyrate] |  |  |  | 2.57 | 1.58 |  | 
